# “And” between values parts separate entries of the source, which are not always exact repeats. Equal values may be shown once.
# Tested on: GRABDA dopamine sensor, nucleus accumbens shell
# Test: Fibre photometry of dopamine (GRABDA) after cocaine administration
# Assay type: in vivo, rat
# Parameters: GRABDA dopamine response per dose (sheet 4i), individual rats / GRABDA dopamine response per dose (sheet 4i), Mean: unit not given here
# Conditions: for GRABDA dopamine signal, Mean / GRABDA dopamine signal, individual rats: Cocaine 5 mg/kg; for GRABDA dopamine signal, AVG: ED Fig. 9a, Cocaine 10 mg/kg
# Procedure: Male Sprague–Dawley rats were anaesthetized with isoflurane (1.5–2%) and then placed onto a stereotaxic frame (Kopf) and injected with AAV5-Syn::coca-5HT3-IRES-mCherry (0.5 µl, 4.95 × 10^12 vg per ml) into the LHb (AP, −3.8 mm relative to bregma; ML, ±0.7 mm; DV, −5.25 mm, at a 10° angle) (n = 5) or underwent sham surgery (n = 6). Rats were also implanted with an optic fibre (400 µm core, 0.50 NA) attached to a 2.5 mm diameter ferrule (Thorlabs) directed to the medial shell of the nucleus accumbens (AP, +1.7 mm relative to bregma; ML, ±0.9 mm; DV, −7.0 mm). To ensure that AAV9-Syn::GRABDA1m was transduced at the direct vicinity of the fibre tip, we coated the fibre with the AAV (0.4 µl, 5 × 10^12 vg per ml) using a silk fibroin film before its implantation as previously described.
# For fibre photometry, dopamine (GRABDA) dynamics were measured using a Tucker-Davis Technologies (TDT) system in anaesthetized rats. […] Data were acquired at 1 kHz. On the testing day, rats were anaesthetized (isoflurane: induction, 5%; maintenance, 3%) and attached to a photometry patch cord (400 μm core, 0.50 NA). GRABDA signals were then collected for 5 min, followed by a saline i.p. injection, and additional GRABDA signal measurement for 20 min. Cocaine was then injected i.p. at 20, 10 or 5 mg per kg, and the GRABDA signal was measured for an additional 20 min. Each rat was tested three times with cocaine doses administered in randomized order. Fibre photometry analyses were performed using scripts in MATLAB R2023b (MathWorks) based on codes from the Barker (https://github.com/djamesbarker)[64] and Lerner (https://github.com/talialerner/)[65] laboratories. […] The GRABDA signal was normalized to values at 1 min before saline or cocaine injection and shown as the average z-scored activity per min. […] Fibre photometry data are represented as mean ± s.e.m. Statistical analyses were performed using Prism 10 (GraphPad).
smiles,measurement,setting,value
COC(=O)[C@H]1[C@@H](OC(=O)c2ccccc2)C[C@@H]2CC[C@H]1N2C [cocaine],"GRABDA dopamine response per dose (sheet 4i), Mean","Coca-5HT3 rats, Dose 5 mg/kg",-63058.3
same,"GRABDA dopamine response per dose (sheet 4i), individual rats","Coca-5HT3 rats, Dose 5 mg/kg",-172031 and 384223 and 532188 and -477527 and -582145
same,"GRABDA dopamine response per dose (sheet 4i), Mean","Coca-5HT3 rats, Dose 10 mg/kg",347550
same,"GRABDA dopamine response per dose (sheet 4i), individual rats","Coca-5HT3 rats, Dose 10 mg/kg",537591 and 787483 and 404806 and 428321 and -420452
same,"GRABDA dopamine response per dose (sheet 4i), Mean","Coca-5HT3 rats, Dose 20 mg/kg",29421.8
same,"GRABDA dopamine response per dose (sheet 4i), individual rats","Coca-5HT3 rats, Dose 20 mg/kg",-332785 and -760751 and 326619 and 420379 and 493647
same,"GRABDA dopamine signal, Mean","Time 0, sheet 4g, 6 rats",0
same,"GRABDA dopamine signal, Mean","Time 0, sheet 4h, 5 rats",0.3508
same,"GRABDA dopamine signal, Mean","Time 1, sheet 4g, 6 rats",0.02583
same,"GRABDA dopamine signal, Mean","Time 1, sheet 4h, 5 rats",0.1222
same,"GRABDA dopamine signal, Mean","Time 2, sheet 4g, 6 rats",0.2299
same,"GRABDA dopamine signal, Mean","Time 2, sheet 4h, 5 rats",0.04413
same,"GRABDA dopamine signal, Mean","Time 3, sheet 4g, 6 rats",0.7586
same,"GRABDA dopamine signal, Mean","Time 3, sheet 4h, 5 rats",0.02999
same,"GRABDA dopamine signal, individual rats","Time 4, sheet 4g",0.7973 and 0.9252 and 2.611 and 0.5744 and 0.4159 and 0.8485
same,"GRABDA dopamine signal, Mean","Time 4, sheet 4g, 6 rats",1.0287
same,"GRABDA dopamine signal, Mean","Time 4, sheet 4h, 5 rats",-0.002503
same,"GRABDA dopamine signal, individual rats","Time 5, sheet 4g",1.23 and 1.254 and 3.178 and 1.255 and 0.28 and 0.3357
same,"GRABDA dopamine signal, Mean","Time 5, sheet 4g, 6 rats",1.255
same,"GRABDA dopamine signal, Mean","Time 5, sheet 4h, 5 rats",0.4003
same,"GRABDA dopamine signal, individual rats","Time 6, sheet 4g",1.399 and 1.386 and 3.378 and 1.497 and 0.2966 and 0.5676
same,"GRABDA dopamine signal, Mean","Time 6, sheet 4g, 6 rats",1.4208
same,"GRABDA dopamine signal, Mean","Time 6, sheet 4h, 5 rats",0.7136
same,"GRABDA dopamine signal, individual rats","Time 7, sheet 4g",1.395 and 1.753 and 3.423 and 2.3 and 0.321 and 1.639
same,"GRABDA dopamine signal, Mean","Time 7, sheet 4g, 6 rats",1.805
same,"GRABDA dopamine signal, Mean","Time 7, sheet 4h, 5 rats",0.8408
same,"GRABDA dopamine signal, individual rats","Time 8, sheet 4g",1.672 and 1.969 and 3.288 and 2.2806 and 0.5769 and 1.2461
same,"GRABDA dopamine signal, Mean","Time 8, sheet 4g, 6 rats",1.839
same,"GRABDA dopamine signal, Mean","Time 8, sheet 4h, 5 rats",0.8223
same,"GRABDA dopamine signal, individual rats","Time 9, sheet 4g",1.777 and 2.101 and 2.8254 and 2.6993 and 0.4303 and 1.7436
same,"GRABDA dopamine signal, Mean","Time 9, sheet 4g, 6 rats",1.93
same,"GRABDA dopamine signal, Mean","Time 9, sheet 4h, 5 rats",0.8303
same,"GRABDA dopamine signal, individual rats","Time 10, sheet 4g",1.667 and 2.313 and 2.507 and 2.586 and 1.167 and 0.977
same,"GRABDA dopamine signal, Mean","Time 10, sheet 4g, 6 rats",1.869
same,"GRABDA dopamine signal, Mean","Time 10, sheet 4h, 5 rats",0.9165
same,"GRABDA dopamine signal, individual rats","Time 11, sheet 4g",1.6386 and 2.495 and 2.468 and 3.874 and 0.606 and 2.597
same,"GRABDA dopamine signal, Mean","Time 11, sheet 4g, 6 rats",2.28
same,"GRABDA dopamine signal, Mean","Time 11, sheet 4h, 5 rats",0.6597
same,"GRABDA dopamine signal, individual rats","Time 12, sheet 4g",1.957 and 2.546 and 2.0788 and 2.652 and 0.8197 and 2.605
same,"GRABDA dopamine signal, Mean","Time 12, sheet 4g, 6 rats",2.11
same,"GRABDA dopamine signal, Mean","Time 12, sheet 4h, 5 rats",0.5883
same,"GRABDA dopamine signal, individual rats","Time 13, sheet 4g",1.603 and 2.238 and 1.918 and 2.979 and 1.082 and 2.101
same,"GRABDA dopamine signal, Mean","Time 13, sheet 4g, 6 rats",1.987
same,"GRABDA dopamine signal, Mean","Time 13, sheet 4h, 5 rats",0.5593
same,"GRABDA dopamine signal, individual rats","Time 14, sheet 4g",1.849 and 2.2953 and 1.648 and 2.627 and 1.351 and 2.787
same,"GRABDA dopamine signal, Mean","Time 14, sheet 4g, 6 rats",2.093
same,"GRABDA dopamine signal, Mean","Time 14, sheet 4h, 5 rats",0.3765
same,"GRABDA dopamine signal, individual rats","Time 15, sheet 4g",1.345 and 2.273 and 1.221 and 3.749 and 1.032 and 2.415
same,"GRABDA dopamine signal, Mean","Time 15, sheet 4g, 6 rats",2.006
same,"GRABDA dopamine signal, Mean","Time 15, sheet 4h, 5 rats",0.2825
same,"GRABDA dopamine signal, individual rats","Time 16, sheet 4g",1.5856 and 2.161 and 1.005 and 2.897 and 1.378 and 2.623
same,"GRABDA dopamine signal, Mean","Time 16, sheet 4g, 6 rats",1.942
same,"GRABDA dopamine signal, Mean","Time 16, sheet 4h, 5 rats",0.2717
same,"GRABDA dopamine signal, individual rats","Time 17, sheet 4g",1.282 and 2.066 and 0.8019 and 2.5132 and 1.107 and 1.846
same,"GRABDA dopamine signal, Mean","Time 17, sheet 4g, 6 rats",1.6029
same,"GRABDA dopamine signal, Mean","Time 17, sheet 4h, 5 rats",0.2019
same,"GRABDA dopamine signal, individual rats","Time 18, sheet 4g",1.176 and 1.956 (2×) and 0.485 and 2.977 and 1.512
same,"GRABDA dopamine signal, Mean","Time 18, sheet 4g, 6 rats",1.677
same,"GRABDA dopamine signal, Mean","Time 18, sheet 4h, 5 rats",0.2838
same,"GRABDA dopamine signal, individual rats","Time 19, sheet 4g",1.43 and 1.847 and 0.2727 and 2.8958 and 1.19 and 1.677
same,"GRABDA dopamine signal, Mean","Time 19, sheet 4g, 6 rats",1.552
same,"GRABDA dopamine signal, Mean","Time 19, sheet 4h, 5 rats",0.4407
same,"GRABDA dopamine signal, individual rats","Time -1, sheet 4g",0.1891 and 0.00306 and 0.03687 and -0.1715
same,"GRABDA dopamine signal, Mean","Time -1, sheet 4g, 6 rats",0.08979
same,"GRABDA dopamine signal, Mean","Time -1, sheet 4h, 5 rats",-0.1218
same,"GRABDA dopamine response per dose (sheet 4i), Mean","Control rats, Dose 5 mg/kg",575620
same,"GRABDA dopamine response per dose (sheet 4i), individual rats","Control rats, Dose 5 mg/kg",1106356 and 625102 and 499430 and 534300 and 481000 and 207530
same,"GRABDA dopamine response per dose (sheet 4i), Mean","Control rats, Dose 10 mg/kg",513482
same,"GRABDA dopamine response per dose (sheet 4i), individual rats","Control rats, Dose 10 mg/kg",1063773 and 869765 and 258346 and 365520 and 172520 and 350970
same,"GRABDA dopamine response per dose (sheet 4i), Mean","Control rats, Dose 20 mg/kg",564660
same,"GRABDA dopamine response per dose (sheet 4i), individual rats","Control rats, Dose 20 mg/kg",543312 and 940737 and 382973 and 597550 and 499710 and 423680
same,"GRABDA dopamine signal, AVG",Time 0,0.01595
same,"GRABDA dopamine signal, AVG",Time 1,0.04899
same,"GRABDA dopamine signal, AVG",Time 2,0.1402
same,"GRABDA dopamine signal, AVG",Time 3,0.549
same,"GRABDA dopamine signal, AVG",Time 4,0.7571

# Reference: article PMC12527922, “Cocaine chemogenetics blunts drug-seeking by synthetic physiology” (Nature, 2025)
